Here are results for one compound from patent publication US20100075316A1, “METHOD FOR I[…] VITAMIN D METABOLISM” (priority 2006, published 2010).

One series concerns CYP24. Briefly: CYP24 enzyme activity in untreated and calcitriol-treated human cancer cell lines. To be noted: for CYP24A1 enzyme activity profiles: baseline and calcitriol-induced. The format is cell-based. From the text:
FIG. 2 is a graphical depiction of CYP24 enzymatic activity measured in untreated and calcitriol treated human cancer cell lines.
This Example provides an analysis of CYP24 enzyme activity in untreated and calcitriol-treated human (prostate, breast, lung and colon) cancer cell lines to characterize their capacity to catabolize calcitriol.

The next series concerns CYP24 mRNA. Briefly: Semi-quantitative RT-PCR of CYP24 exon 11-12 transcripts before and after calcitriol treatment. The class given is cell-based, human. To be noted: after calcitriol treatment. From the text: FIGS. 3A-3D provide graphical representations of CYP24 mRNA splicing patterns and cDNA amplification profiles. FIG. 3A provides a graphical map of the CYP24 gene from exon 9 through exon 11, an example of primer locations for obtaining cDNA using RT-PCR, and resulting products in the case of correct (280 bp) and aberrant (880 bp) splicing. FIG. 3B provides a graphical map of the CYP24 gene from exon 11 through exon 12 and RT-PCR cDNA product sizes for correctly spliced CYP24 mRNA from a CYP24 gene lacking a predictive SNP (150 bp), as well as the inclusion of intron 12 sequences in aberrantly spliced CYP24 mRNA when the predictive SNP is present (302 by transcript). FIG. 3C is a photographic representation of cDNA amplification products of unspliced or spliced CYP24 mRNA across exons 9-11 of the CYP24 mRNA. FIG. 3D is a photographic representation of cDNA amplification products across exons 11-12 of correctly spliced (150 bp) or aberrantly spliced (302 bp) CYP24 mRNA from various cancer cell lines.
Calcitriol treatment (T) modulated the relative expression of the two transcripts differently in the three prostate cancer cell lines. CYP24 enzyme activity is associated with the expression of the lower molecular weight transcript in the three prostate cancer cell lines as shown in Table 3 (D3=calcitriol), which describes the relationship between CYP24 protein activity phenotypes and exon 11-12 transcript size before (“C” in FIG. 3) and after (“T” in FIG. 3) calcitriol treatment in prostate cancer cell lines.

Series [1] in a line: Serum calcitriol clearance in cancer patients by CYP24 genotype. The format is in vivo, human. To be noted: TT/TT genotype (positions 15752 and 15774 of SEQ ID NO:1) vs TC/TC; 30 patients, oral high doses of calcitriol; p-value=0.0377. The method, then: Elimination half life was calculated using the equation: T1/2=0.693/β, where β is the slope of the regression line of the terminal log serum calcitriol concentration versus time.
This Example provides an analysis of clinical ramifications of certain CYP24 polymorphisms. To obtain the data presented in this Example, we analyzed CYP24 polymorphisms in the intron between exon 9 and 10 in DNA samples obtained from 30 cancer patients treated with high doses of orally administered calcitriol. […] (Smith DC, et al., Clin Cancer Res. 1999; 5: 1339-1345).

For the next series, the system named is LNCaP. Particulars: androgen dependent human prostate cancer cell line; cited from earlier work.
The subject of the next series is PC3. Particulars: PC3, androgen independent human prostate cancer cells; cited from earlier work.
The test system of another series is DU145. To be noted: DU145, androgen independent human prostate cancer cells; cited from earlier work.
The next series deals with advanced prostate cancer. To be noted: randomized trial, men with advanced prostate cancer; cited from earlier work.

For `C=C1/C(=C\C=C2/CCC[C@]3(C)[C@@H]([C@H](C)CCCC(C)(C)O)CC[C@@H]23)C[C@@H](O)C[C@@H]1O` [calcitriol], the “baseline and calcitriol-induced CYP24 enzyme profile” value was “high baseline and calcitriol induced CYP24 activity” with CYP24 (A549 lung cancer cells); “negligible baseline and calcitriol-induced CYP24 activity” with CYP24 (H520 lung cancer cells); “high baseline and calcitriol induced CYP24 activity” in the series with CYP24 (HCT116 colon cancer cells); “barely detectable baseline CYP24 activity that is calcitriol-induced” with CYP24 (HT29 colon cancer cells); “barely detectable baseline CYP24 activity that is calcitriol-induced” in the series with CYP24 (MCF7 breast cancer cells); “high baseline and calcitriol induced CYP24 activity” in the series with CYP24 (MDA231 breast cancer cells). Also, the “CYP24A1 enzyme activity profiles” value in the series with CYP24 (DU145 prostate cancer cells) is “high baseline and calcitriol induced CYP24 activity”; with CYP24 (DU145 prostate cancer cells, listed as D3) it was “High baseline & D3 inducible”; with CYP24 (LNCaP prostate cancer cells), “negligible baseline and calcitriol-induced CYP24 activity”; in the series on CYP24 (LNCaP prostate cancer cells, listed as D3), “Negligible: baseline & D3 inducible”; with CYP24 (PC3 prostate cancer cells) it was “barely detectable baseline CYP24 activity that is calcitriol-induced”; in the series with CYP24 (PC3 prostate cancer cells, listed as D3), “Negligible baseline & high D3 inducible”. In addition, the “Exon 11-12 size (bp), D3 treated” value in the series with CYP24 mRNA (DU145 prostate cancer cells) is on record as 135 bp; in the series with CYP24 mRNA (LNCaP prostate cancer cells), 307 bp; in the series with CYP24 mRNA (PC3 prostate cancer cells) it was 135 bp. In series [1], the “serum calcitriol elimination half life (T1/2)” value is reported as “significantly lower T1/2 than the TC/TC genotype”. Moreover, the figures for the “sensitivity to calcitriol growth inhibition” value in the series with LNCaP, with PC3 and in the series on DU145 were “sensitive to calcitriol growth inhibition”, “relatively resistant to calcitriol growth inhibition” and “relatively resistant to calcitriol growth inhibition”, respectively. Moreover, the “potentiation of antitumor activity of docetaxel” value in the series with advanced prostate cancer was “potentiate the antitumor activity of docetaxel”.
